According to ChEMBL document CHEMBL4507326, “Data for DCP probe TP-030-2” (2021):

Columns and labels:
[1] = biological target: Tyrosine-protein kinase CSK (Homo sapiens, UniProt P41240); experiment: CSK(CSK1LGF1) Takeda global kinase panel
[2] = species on record: Rattus norvegicus; experiment: Inhibition of Thyroid Hormone at 10 µM in the Eurofins-Panlabs radioligand binding assay (Eurofins_assay_285900); assay type: protein assay; settings: Compound concentration 10.0 uM
[3] = biological target: Beta-2 adrenergic receptor (Homo sapiens) (UniProt P07550); settings: Compound concentration 10.0 uM
[4] = biological target: NT-3 growth factor receptor (Homo sapiens, UniProt Q16288); experiment: TRKC(NTR3LGN1) Takeda global kinase panel
[5] = biological target: Fibroblast growth factor receptor 4 (Homo sapiens, UniProt P22455); experiment: FGFR4(FGF4LGF1) Takeda global kinase panel
Chain of Fibroblast growth factor receptor 4 (P22455 whole entry): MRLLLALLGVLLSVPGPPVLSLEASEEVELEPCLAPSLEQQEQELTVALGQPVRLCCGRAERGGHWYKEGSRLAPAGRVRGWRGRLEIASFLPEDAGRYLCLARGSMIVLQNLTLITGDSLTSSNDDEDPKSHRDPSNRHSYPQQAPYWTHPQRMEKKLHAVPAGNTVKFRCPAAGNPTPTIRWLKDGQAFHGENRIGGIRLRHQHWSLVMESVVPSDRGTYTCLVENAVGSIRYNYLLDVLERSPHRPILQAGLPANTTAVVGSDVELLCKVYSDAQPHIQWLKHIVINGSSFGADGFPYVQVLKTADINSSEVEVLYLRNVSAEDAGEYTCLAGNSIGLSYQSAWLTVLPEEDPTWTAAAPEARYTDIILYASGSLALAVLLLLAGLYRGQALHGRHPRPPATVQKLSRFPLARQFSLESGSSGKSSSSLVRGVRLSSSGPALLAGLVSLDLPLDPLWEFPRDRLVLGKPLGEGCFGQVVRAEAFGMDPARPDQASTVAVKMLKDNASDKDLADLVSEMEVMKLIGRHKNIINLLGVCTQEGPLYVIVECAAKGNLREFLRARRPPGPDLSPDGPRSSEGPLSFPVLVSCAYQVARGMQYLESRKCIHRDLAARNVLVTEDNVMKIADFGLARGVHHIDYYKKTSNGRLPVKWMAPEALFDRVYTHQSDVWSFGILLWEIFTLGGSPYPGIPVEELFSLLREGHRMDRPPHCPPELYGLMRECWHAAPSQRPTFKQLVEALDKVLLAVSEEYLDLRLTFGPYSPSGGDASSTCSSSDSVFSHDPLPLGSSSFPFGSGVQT

[6] = biological target: Casein kinase II subunit alpha (Homo sapiens, UniProt P68400); experiment: CK2alpha1(C2A1LGF1) Takeda global kinase panel
[7] = biological target: cAMP-dependent protein kinase catalytic subunit alpha (Homo sapiens, UniProt P17612); experiment: PKAalpha(PRCALGH1) Takeda global kinase panel
[8] = biological target: Non-receptor tyrosine-protein kinase TYK2 (Homo sapiens, UniProt P29597); experiment: Tyk2(TYK2LGF1) Takeda global kinase panel
[9] = biological target: Macrophage colony-stimulating factor 1 receptor (Homo sapiens, UniProt P07333); experiment: FmS [CSFR(CSF1LGC1)] Takeda global kinase panel
[10] = species on record: Rattus norvegicus; settings: Compound concentration 10.0 uM
[11] = biological target: Epidermal growth factor receptor (Homo sapiens, UniProt P00533); experiment: EGFR(EGFRMGB1) Takeda global kinase panel
[12] = biological target: Receptor tyrosine-protein kinase erbB-4 (Homo sapiens, UniProt Q15303); experiment: HER4(ERB4CGF1) Takeda global kinase panel
[13] = biological target: Serine/threonine-protein kinase Chk2 (Homo sapiens, UniProt O96017); experiment: CHK2(CHE2LGY1) Takeda global kinase panel
[14] = biological target: Serine/threonine-protein kinase Nek8 (Homo sapiens, UniProt Q86SG6); experiment: Nek8(NEK8LGRI) Takeda global kinase panel
[15] = biological target: Mitogen-activated protein kinase kinase kinase kinase 1 (Homo sapiens, UniProt Q92918); experiment: HPK1(M4K1LGY1) Takeda global kinase panel
[16] = biological target: Alpha-1B adrenergic receptor (Homo sapiens) (UniProt P35368); experiment: Adrenergic alpha1B Eurofins-Panlabs radioligand binding assay; set-up: ligand concentration 0.2 nM; settings: Compound concentration 10.0 uM
Chain of Alpha-1B adrenergic receptor (Homo sapiens) (P35368 whole entry): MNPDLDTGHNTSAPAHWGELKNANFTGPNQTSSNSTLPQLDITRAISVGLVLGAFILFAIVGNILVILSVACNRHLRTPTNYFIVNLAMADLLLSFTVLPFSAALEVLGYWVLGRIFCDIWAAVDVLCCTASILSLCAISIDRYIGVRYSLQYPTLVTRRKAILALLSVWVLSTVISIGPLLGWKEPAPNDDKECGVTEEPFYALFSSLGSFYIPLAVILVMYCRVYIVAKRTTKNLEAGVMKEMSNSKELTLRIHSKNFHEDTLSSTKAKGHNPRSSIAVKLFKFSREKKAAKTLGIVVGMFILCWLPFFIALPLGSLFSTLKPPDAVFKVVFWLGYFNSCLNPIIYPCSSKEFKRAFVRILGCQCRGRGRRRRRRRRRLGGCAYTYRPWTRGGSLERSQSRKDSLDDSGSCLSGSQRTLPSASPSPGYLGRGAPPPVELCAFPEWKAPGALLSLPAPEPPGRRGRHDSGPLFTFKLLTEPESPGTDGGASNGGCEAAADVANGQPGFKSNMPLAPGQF

[17] = biological target: Protein kinase C iota type (Homo sapiens, UniProt P41743); experiment: PKCiota(PRKILGRD) Takeda global kinase panel
Chain of Protein kinase C iota type (P41743 whole entry): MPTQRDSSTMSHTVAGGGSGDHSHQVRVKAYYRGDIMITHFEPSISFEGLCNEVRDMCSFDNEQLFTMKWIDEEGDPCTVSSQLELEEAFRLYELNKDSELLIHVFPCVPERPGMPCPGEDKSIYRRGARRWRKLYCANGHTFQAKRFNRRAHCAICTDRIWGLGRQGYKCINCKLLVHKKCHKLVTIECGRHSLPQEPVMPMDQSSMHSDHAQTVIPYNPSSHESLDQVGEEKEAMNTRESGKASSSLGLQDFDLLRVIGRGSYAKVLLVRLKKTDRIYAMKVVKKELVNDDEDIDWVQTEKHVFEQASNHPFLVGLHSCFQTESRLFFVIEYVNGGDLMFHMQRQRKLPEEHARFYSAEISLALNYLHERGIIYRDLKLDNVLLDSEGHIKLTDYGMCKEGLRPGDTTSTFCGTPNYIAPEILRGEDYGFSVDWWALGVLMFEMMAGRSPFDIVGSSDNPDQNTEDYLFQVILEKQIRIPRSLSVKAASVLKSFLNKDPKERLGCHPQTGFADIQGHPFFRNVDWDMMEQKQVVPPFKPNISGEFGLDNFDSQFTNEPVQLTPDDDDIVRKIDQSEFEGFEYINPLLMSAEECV

[18] = biological target: Dual specificity tyrosine-phosphorylation-regulated kinase 4 (Homo sapiens, UniProt Q9NR20); experiment: DYRK4(DYR4LHY1) Takeda global kinase panel
[19] = biological target: Sodium-dependent serotonin transporter (Homo sapiens) (UniProt P31645); settings: Compound concentration 10.0 uM
[20] = biological target: Protein-tyrosine kinase 2-beta (Homo sapiens, UniProt Q14289); experiment: PYK2(PT2BLHF1) Takeda global kinase panel
[21] = biological target: Mitogen-activated protein kinase kinase kinase 13 (Homo sapiens, UniProt O43283); experiment: LZK(M313LGRJ) Takeda global kinase panel
[22] = biological target: 5-hydroxytryptamine receptor 1D (Homo sapiens) (UniProt P28221); settings: Compound concentration 10.0 uM
[23] = biological target: Ephrin type-B receptor 4 (Homo sapiens, UniProt P54760); experiment: EphB4(EPB4LGY1) Takeda global kinase panel
[24] = biological target: D(1A) dopamine receptor (Homo sapiens) (UniProt P21728); settings: Compound concentration 10.0 uM
[25] = biological target: Cyclin-dependent kinase 2 (Homo sapiens, UniProt P24941); experiment: CDK2(CDK2CGS1) Takeda global kinase panel
[26] = biological target: Serine/threonine-protein kinase 26 (Homo sapiens, UniProt Q9P289); experiment: MST4(MST4LGC1) Takeda global kinase panel
[27] = biological target: Mitogen-activated protein kinase 8 (Homo sapiens, UniProt P45983); experiment: JNK1(MAP8LGF1) Takeda global kinase panel
[28] = biological target: Testis-specific serine/threonine-protein kinase 1 (Homo sapiens, UniProt Q9BXA7); experiment: TSSK1(TS1BLGP1) Takeda global kinase panel
[29] = biological target: B2 bradykinin receptor (Homo sapiens) (UniProt P30411); settings: Compound concentration 10.0 uM
[30] = biological target: Serine/threonine-protein kinase SIK3 (Homo sapiens, UniProt Q9Y2K2); experiment: QSK(SIK3LGP1) Takeda global kinase panel
[31] = biological target: Prostaglandin E2 receptor EP4 subtype (Homo sapiens) (UniProt P35408); experiment: Inhibition of Prostanoid EP4 at 10 µM in the Eurofins-Panlabs radioligand binding assay (Eurofins_assay_268420); set-up: ligand concentration 1 nM; settings: Compound concentration 10.0 uM
[32] = biological target: Eukaryotic translation initiation factor 2-alpha kinase 3 (Homo sapiens, UniProt Q9NZJ5); experiment: PERK [PEK(EIK3CGQ1)] Takeda global kinase panel
Chain of Eukaryotic translation initiation factor 2-alpha kinase 3 (Q9NZJ5 whole entry): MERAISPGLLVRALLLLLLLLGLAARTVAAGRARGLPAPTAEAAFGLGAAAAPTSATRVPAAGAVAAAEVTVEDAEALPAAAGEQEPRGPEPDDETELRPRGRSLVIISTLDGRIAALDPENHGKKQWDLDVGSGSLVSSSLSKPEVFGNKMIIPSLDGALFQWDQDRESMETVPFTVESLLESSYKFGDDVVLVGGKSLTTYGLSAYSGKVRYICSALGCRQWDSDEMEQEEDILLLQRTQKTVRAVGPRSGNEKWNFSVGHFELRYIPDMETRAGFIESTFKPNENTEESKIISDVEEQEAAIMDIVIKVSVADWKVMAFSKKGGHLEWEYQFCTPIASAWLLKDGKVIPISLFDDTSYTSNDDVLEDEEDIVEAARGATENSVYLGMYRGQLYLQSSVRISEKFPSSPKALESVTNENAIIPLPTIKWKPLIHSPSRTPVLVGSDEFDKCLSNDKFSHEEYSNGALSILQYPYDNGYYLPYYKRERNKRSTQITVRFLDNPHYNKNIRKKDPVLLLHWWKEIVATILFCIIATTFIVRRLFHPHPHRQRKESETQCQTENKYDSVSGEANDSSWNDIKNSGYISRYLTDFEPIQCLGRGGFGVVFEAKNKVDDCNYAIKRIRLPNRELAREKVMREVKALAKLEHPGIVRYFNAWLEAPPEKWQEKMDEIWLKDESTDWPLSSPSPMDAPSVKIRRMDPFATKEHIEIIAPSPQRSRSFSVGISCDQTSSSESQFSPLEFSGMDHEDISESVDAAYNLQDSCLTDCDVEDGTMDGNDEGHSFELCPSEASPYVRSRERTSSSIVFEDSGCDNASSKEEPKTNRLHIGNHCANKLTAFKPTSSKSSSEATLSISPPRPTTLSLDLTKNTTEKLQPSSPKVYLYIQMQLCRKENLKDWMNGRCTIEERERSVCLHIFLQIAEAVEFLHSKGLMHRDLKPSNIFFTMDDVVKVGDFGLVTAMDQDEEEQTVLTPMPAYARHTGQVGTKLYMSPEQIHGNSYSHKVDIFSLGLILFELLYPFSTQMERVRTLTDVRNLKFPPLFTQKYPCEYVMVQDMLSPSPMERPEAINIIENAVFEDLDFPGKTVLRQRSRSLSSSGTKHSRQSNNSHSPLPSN

[33] = biological target: 5-hydroxytryptamine receptor 6 (Homo sapiens) (UniProt P50406); settings: Compound concentration 10.0 uM
[34] = biological target: 5-hydroxytryptamine receptor 1A (Homo sapiens) (UniProt P08908); settings: Compound concentration 10.0 uM
Chain of 5-hydroxytryptamine receptor 1A (Homo sapiens) (P08908 whole entry): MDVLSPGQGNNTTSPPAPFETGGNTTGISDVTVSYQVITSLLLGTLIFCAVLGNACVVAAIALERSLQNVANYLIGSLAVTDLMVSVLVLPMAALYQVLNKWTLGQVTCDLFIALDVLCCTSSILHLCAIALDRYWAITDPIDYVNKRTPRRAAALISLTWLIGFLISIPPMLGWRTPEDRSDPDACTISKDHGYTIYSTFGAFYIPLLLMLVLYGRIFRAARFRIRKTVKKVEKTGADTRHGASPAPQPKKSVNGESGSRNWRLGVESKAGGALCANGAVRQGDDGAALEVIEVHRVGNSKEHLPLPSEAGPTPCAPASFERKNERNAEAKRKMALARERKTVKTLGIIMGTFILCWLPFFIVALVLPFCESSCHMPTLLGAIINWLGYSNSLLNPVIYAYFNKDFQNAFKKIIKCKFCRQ

[35] = biological target: Mast/stem cell growth factor receptor Kit (Homo sapiens, UniProt P10721); experiment: Kit(KIT1MGC1) Takeda global kinase panel
[36] = biological target: Cyclin-dependent kinase 8 (Homo sapiens, UniProt P49336); experiment: CDK8(CDK8CGS1) Takeda global kinase panel
[37] = species on record: Rattus norvegicus; experiment: Inhibition of Imidazoline I2, Central at 10 µM in the Eurofins-Panlabs radioligand binding assay (Eurofins_assay_241000); set-up: ligand concentration 2 nM; settings: Compound concentration 10.0 uM
[38] = biological target: Serine/threonine-protein kinase NLK (Homo sapiens, UniProt Q9UBE8); experiment: NLK(NLK1LGI5) Takeda global kinase panel
[39] = biological target: Sodium-dependent dopamine transporter (Homo sapiens) (UniProt Q01959); settings: Compound concentration 10.0 uM
Chain of Sodium-dependent dopamine transporter (Homo sapiens) (Q01959 whole entry): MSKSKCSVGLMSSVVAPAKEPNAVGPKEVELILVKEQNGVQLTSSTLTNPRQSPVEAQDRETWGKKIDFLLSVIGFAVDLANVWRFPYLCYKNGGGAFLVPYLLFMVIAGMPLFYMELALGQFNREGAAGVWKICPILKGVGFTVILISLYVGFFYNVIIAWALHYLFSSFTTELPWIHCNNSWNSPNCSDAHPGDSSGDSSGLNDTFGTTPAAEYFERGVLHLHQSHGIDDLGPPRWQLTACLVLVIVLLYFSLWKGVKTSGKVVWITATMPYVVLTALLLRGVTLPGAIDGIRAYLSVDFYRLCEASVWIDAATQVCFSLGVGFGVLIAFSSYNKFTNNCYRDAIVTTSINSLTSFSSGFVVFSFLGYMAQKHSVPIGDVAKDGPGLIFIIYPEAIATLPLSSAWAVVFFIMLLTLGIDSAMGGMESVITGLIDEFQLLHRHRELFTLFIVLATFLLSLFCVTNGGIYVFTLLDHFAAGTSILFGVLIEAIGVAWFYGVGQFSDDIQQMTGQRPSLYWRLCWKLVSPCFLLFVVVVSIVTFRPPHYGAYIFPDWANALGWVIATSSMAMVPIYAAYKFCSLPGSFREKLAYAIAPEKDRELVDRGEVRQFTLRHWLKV

[40] = biological target: cGMP-dependent protein kinase 2 (Homo sapiens, UniProt Q13237); experiment: PKG2(PRG2LHY1) Takeda global kinase panel
[41] = biological target: Serine/threonine-protein kinase PLK1 (Homo sapiens, UniProt P53350); experiment: PLK1(PLK1LGY1) Takeda global kinase panel
[42] = biological target: Ribosomal protein S6 kinase alpha-4 (Homo sapiens, UniProt O75676); experiment: MSK2(R6A4LGRJ) Takeda global kinase panel
Chain of Ribosomal protein S6 kinase alpha-4 (O75676 whole entry): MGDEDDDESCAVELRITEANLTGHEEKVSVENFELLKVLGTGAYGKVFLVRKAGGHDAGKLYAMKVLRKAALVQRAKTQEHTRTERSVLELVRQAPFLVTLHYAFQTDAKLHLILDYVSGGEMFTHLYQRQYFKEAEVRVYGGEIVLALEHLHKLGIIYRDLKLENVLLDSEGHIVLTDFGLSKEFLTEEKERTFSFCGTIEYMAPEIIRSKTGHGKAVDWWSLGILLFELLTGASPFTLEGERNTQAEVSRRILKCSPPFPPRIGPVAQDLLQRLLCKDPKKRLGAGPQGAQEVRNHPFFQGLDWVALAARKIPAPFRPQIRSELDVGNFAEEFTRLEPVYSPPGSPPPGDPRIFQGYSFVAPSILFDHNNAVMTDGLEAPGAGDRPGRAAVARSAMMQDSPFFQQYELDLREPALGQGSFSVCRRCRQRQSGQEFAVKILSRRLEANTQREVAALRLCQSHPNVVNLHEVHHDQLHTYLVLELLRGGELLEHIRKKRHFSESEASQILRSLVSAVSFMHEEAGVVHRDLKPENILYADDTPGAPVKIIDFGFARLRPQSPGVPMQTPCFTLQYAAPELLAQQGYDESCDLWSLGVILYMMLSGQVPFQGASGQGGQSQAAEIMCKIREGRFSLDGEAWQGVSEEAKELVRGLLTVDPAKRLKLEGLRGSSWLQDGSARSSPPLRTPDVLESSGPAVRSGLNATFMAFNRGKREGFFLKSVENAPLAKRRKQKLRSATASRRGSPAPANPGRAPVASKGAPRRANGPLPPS

[43] = biological target: SRSF protein kinase 2 (Homo sapiens, UniProt P78362); experiment: SRPK2(SRP2IGRL) Takeda global kinase panel
[44] = biological target: Histamine H4 receptor (Homo sapiens) (UniProt Q9H3N8); settings: Compound concentration 10.0 uM
[45] = biological target: Phosphatidylinositol 4,5-bisphosphate 3-kinase catalytic subunit alpha isoform (Homo sapiens, UniProt P42336); experiment: PI3KCA(PI3ACGR1) Takeda global kinase panel
[46] = biological target: Neuropeptide Y receptor type 1 (Homo sapiens) (UniProt P25929); experiment: Inhibition of Neuropeptide Y Y1 at 10 µM in the Eurofins-Panlabs radioligand binding assay (Eurofins_assay_257010); settings: Compound concentration 10.0 uM

CN1C(=O)[C@@H](N2CCc3c(nn(Cc4ccccc4)c3Br)C2=O)COc2ccccc21 [TP-030-2]
inactive: inhibition [2] 4% | inhibition [3] -4% | inhibition [10] -6% | inhibition [16] -2% | inhibition [19] 22.6% | inhibition [22] -5.06% | inhibition [24] 9% | inhibition [29] 0% | inhibition [31] -2% | inhibition [33] 8.15% | inhibition [34] 18% | inhibition [37] -6% | inhibition [39] -8.33% | inhibition [44] 14.7% | inhibition [46] 10%
1 µM: IC50 [1] | IC50 [4] | IC50 [5] | IC50 [6] | IC50 [7] | IC50 [8] | IC50 [9] | IC50 [11] | IC50 [12] | IC50 [13] | IC50 [14] | IC50 [15] | IC50 [17] | IC50 [18] | IC50 [20] | IC50 [21] | IC50 [23] | IC50 [25] | IC50 [26] | IC50 [27] | IC50 [28] | IC50 [30] | IC50 [32] | IC50 [35] | IC50 [36] | IC50 [38] | IC50 [40] | IC50 [41] | IC50 [42] | IC50 [43] | IC50 [45]
